Experimental data: patent US8030478B2, “Method for nucleic acid replication and novel artificial base pairs” (priority 2005, dated 2011)
Read-outs that look alike come from different tables or passages of the source.

What was measured:
T7 RNA polymerase [1] = target: T1, T7 RNA polymerase (Escherichia phage T7, UniProt P00573); details: 1 mM substrate, 1 mM NTPs, template DNA containing Ds, 37° C., 3 hours; FIG. 49
Experimental: More specifically, experimental procedures as shown below were used. […] After reaction at 37° C. for 3 hours, 10 M urea (20 μL) was added to this solution to stop the reaction.

[2] = target: T2, Klenow fragment lacking exonuclease activity (KF exo−) (Escherichia coli, UniProt P00582, D355A/E357A); assay type: biochemical, E. coli; details: for Efficiency (Vmax/KM) / Km / Vmax: 37° C.
T2 construct: enzyme solution of the Klenow fragment lacking exonuclease activity (KF exo^−, Amersham USB); purchased Amersham USB
T2 sequence (P00582 324-928 D355A/E357A): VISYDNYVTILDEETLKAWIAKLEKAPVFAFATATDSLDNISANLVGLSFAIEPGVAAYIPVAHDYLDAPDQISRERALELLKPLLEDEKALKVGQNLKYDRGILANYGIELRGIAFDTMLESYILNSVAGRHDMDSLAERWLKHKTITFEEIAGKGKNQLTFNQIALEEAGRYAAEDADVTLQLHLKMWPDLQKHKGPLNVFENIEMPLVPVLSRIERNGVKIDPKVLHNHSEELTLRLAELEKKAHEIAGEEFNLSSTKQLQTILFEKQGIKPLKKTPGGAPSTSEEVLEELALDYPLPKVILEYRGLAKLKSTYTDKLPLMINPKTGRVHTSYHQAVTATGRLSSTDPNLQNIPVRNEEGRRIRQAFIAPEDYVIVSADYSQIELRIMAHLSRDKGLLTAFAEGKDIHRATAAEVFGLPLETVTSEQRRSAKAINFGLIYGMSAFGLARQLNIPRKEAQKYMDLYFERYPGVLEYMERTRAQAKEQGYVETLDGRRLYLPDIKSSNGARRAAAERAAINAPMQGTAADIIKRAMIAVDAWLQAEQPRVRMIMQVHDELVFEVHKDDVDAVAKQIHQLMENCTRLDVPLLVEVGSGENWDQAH
Experimental: The single nucleotide insertion experiment was performed as described in documents (Non-patent Documents 30-32). A primer (20-mer) labeled with 6-carboxylfluorescein at the 5′-end was annealed with template DNA (35-mer) by heating at 95° C. and slow cooling to 4° C. in 100 mM Tris-HCl (pH 7.5) buffer containing 20 mM MgCl2, 2 mM DTT and 0.1 mg/ml bovine serum albumin. The primer-template duplex solution (10 μM, 5 μl) was mixed with 2 μl enzyme solution of the Klenow fragment lacking exonuclease activity (KF exo^−, Amersham USB). After the mixture was incubated for 2 minutes, each dNTP solution (3 μl) was added to this solution to start the reaction at 37° C. The amount of the enzyme used (5-50 nM), the reaction time (1-35 minutes) and the gradient concentration of each dNTP (0.3-1500 μM) were adjusted to ensure conditions giving 25% or less products. The reaction was stopped with 10 μl stop solution (95% formamide and 20 mM EDTA), and the mixture was immediately heated at 75° C. for 3 minutes. The diluted products were analyzed in an automated ABI377 DNA sequencer equipped with GeneScan software (version 3.0) (Non-patent Document 32). The relative velocity (v0) was calculated by dividing the extent of reaction by the reaction time, and then normalized to the enzyme concentration (20 nM) for the various enzyme concentrations used. Kinetic parameters (KM and Vmax) were obtained from Hanes-Woolf plots of [dNTP]/v0 against [dNTP].
Each parameter was averaged from 3 to 8 data sets.

[3] = target: Klenow fragment (KF exo+ / KF exo−) (Escherichia coli, UniProt P00582); details: dPaTP and natural substrates in the presence of the named substrate (0.5 or 1 molar equivalent of dPaTP); FIG. 2d
Chain of Klenow fragment (KF exo+ / KF exo−) (Escherichia coli, UniProt P00582) (P00582 324-928): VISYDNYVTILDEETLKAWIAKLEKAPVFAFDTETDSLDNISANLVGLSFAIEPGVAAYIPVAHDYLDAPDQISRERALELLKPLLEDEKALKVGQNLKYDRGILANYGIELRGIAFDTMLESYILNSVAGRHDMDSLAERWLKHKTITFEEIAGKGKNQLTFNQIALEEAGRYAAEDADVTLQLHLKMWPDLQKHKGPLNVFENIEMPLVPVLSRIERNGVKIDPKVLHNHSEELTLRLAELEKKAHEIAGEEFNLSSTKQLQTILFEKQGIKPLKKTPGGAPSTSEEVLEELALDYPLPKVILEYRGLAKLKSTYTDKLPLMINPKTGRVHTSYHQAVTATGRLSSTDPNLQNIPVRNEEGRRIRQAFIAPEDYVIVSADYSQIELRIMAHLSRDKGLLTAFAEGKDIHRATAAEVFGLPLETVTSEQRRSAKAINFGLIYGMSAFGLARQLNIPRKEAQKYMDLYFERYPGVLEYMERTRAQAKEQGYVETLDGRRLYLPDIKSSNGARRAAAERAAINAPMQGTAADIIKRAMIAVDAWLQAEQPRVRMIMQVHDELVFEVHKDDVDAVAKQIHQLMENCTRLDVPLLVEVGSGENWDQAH
Experimental: (§1) [FIG. 2d] FIGS. 2a to 2e show single nucleotide insertion and primer extension experiments with an unnatural base pair system based on Ds-Pa base pairing.
(§2) [FIG. 2e] FIGS. 2a to 2e show single nucleotide insertion and primer extension experiments with an unnatural base pair system based on Ds-Pa base pairing.
(§3) A 5′-^32P-labeled primer (23-mer) and template DNA (35-mer) were annealed into duplex form in 20 mM Tris-HCl (pH 7.5) buffer containing 14 mM MgCl2 and 0.2 mM DTT. The duplex solution (400 nM, 5 μl) was mixed with each 5× dNTP solution (2 μl) on ice, followed by addition of 3 μl enzyme solution containing KF exo^− (1 unit) or KF exo^+ (1 unit) (TAKARA) to start the reaction. After the reaction solution was incubated at 37° C. for 3 or 5 minutes, a dye solution (10 μl) containing 89 mM Tris-borate, 2 mM EDTA, 10 M urea and 0.05% BPB was added to stop the reaction. […] The products on the gel were analyzed with a bio-imaging analyzer (model BAS2500, Fuji).

[4] = test system: Klenow fragment (KF exo+ / KF exo−); details: FIG. 2e; for primer extension after incorporation of the substrate: dDsTPN opposite template Pa, dATPN opposite template T, Lanes 2 and 14
Experimental: as §1, §2, §3

[5] = target: Klenow fragment lacking 3′-5′ exonuclease activity (Escherichia coli, UniProt P00582, D355A/E357A); details: template DNA (55-mer) containing Ds, 10 μM substrate, 37° C., 5 minutes; FIG. 48
Chain of Klenow fragment lacking 3′-5′ exonuclease activity (P00582 324-928 D355A/E357A): as the sequence (P00582 324-928 D355A/E357A) above
Experimental: More specifically, experimental procedures as shown below were used. […] The reaction was performed using 200 nM Template-Primer, 100 μM or 200 μM dNTPs (N=A, G, C, T), 10 μM NH2-hx-dPnTP or FAM-hx-dPnTP, and 0.1 U/μl Klenow fragment (GE Health Care) in 50 mM Tris-HCl (pH 7.5), 10 mM MgCl2, 1 mM DTT, 0.05 mg/ml BSA. After reaction at 37° C. for 5 minutes, 10 M urea (20 μl) was added to this solution to stop the reaction. […] Bands of the reaction products were detected with a fluorescence image analyzer (Molecular Imager, Bio-Rad, FAM detection mode).

T7 RNA polymerase [6] = target: T1, T7 RNA polymerase; details: for transcripts biotinylated (incorporation rate): DNA6 template obtained by ligation; for misincorporation opposite natural bases, yield of biotinylated transcripts / misincorporation per base position in the 152-mer transcripts: DNAcont2 template
Experimental: 152-mer RNAs transcribed with Bio-PaTP from DNA6 template obtained by ligation and DNAcont2 template obtained by PCR amplification (20 cycles), as well as 152-mer RNAs transcribed with biotinylated UTP (Bio-UTP) from DNAcont5 and DNAcont6 templates obtained by ligation were mixed with streptavidin. Biotinylated RNA-streptavidin complexes were separated from free RNAs on a 7% polyacrylamide-7 M urea gel, and the percentages (yields) of the complexes were determined from their band intensity.
Transcription (20 μl) was performed for 6 hours at 37° C. using 3 μCi [γ-^32P]GTP, 2 mM each natural NTP, 0-4 mM Bio-PaTP (biotinylated Pa substrate: chemically synthesized as shown in Example IV), and 30 nM template (DNA6 and DNAcont2 (see FIG. 6), obtained by both ligation and PCR amplification).
For control reactions using DNAcont5 and DNAcont6 obtained by ligation (see FIG. 6), transcription was performed only with 2 mM ATP, GTP and CTP in the presence or absence of 2 mM Bio-UTP (biotin-16-uridine-5′-triphosphate, Roche Applied Science). The products were analyzed and purified on a 7-10% polyacrylamide-7 M urea gel.
The biotinylated RNA transcripts were detected by gel shift assay using streptavidin. A mixture (10 μl) of 2 pmol ^32P-labeled transcript and 100 pmol streptavidin (Promega) was incubated at 20° C. for 1 hour in 10 mM Tris-HCl buffer (pH 7.6) containing 50 mM NaCl and 10 mM EDTA. The biotinylated RNA-streptavidin complexes were analyzed by electrophoresis on a 7% polyacrylamide-7 M urea gel. To determine the position where Bio-Pa was introduced, each RNA (152-mer) was labeled with [γ-^32P]ATP (Perkin Elmer) after 5′-dephosphorylation with calf intestinal alkaline phosphatase (Takara). The labeled RNA was partially digested with RNase T1 at 55° C. for 12 minutes in 13.3 mM sodium citrate buffer (pH 5.0) containing 4.7 M urea, 0.7 mM EDTA and 0.17 mg/ml E. coli tRNA, or with alkali at 90° C. for 15 minutes in 32 mM sodium carbonate buffer (pH 9.1) containing 0.6 mM EDTA. The alkali-digested RNA solution (9 μl) was mixed with 11 μl of 20 mM Tris-HCl buffer (pH 7.6) containing 150 mM NaCl, and the mixture (10 μl) was then incubated with streptavidin magnetic beads (0.4 mg) (New England BioLabs) for 5 minutes at room temperature to capture the biotinylated RNA. An aliquot (5 μl) of the supernatant was analyzed together with other digested samples on a 10% polyacrylamide-7 M urea gel.

T1 sequence (P00573 whole entry): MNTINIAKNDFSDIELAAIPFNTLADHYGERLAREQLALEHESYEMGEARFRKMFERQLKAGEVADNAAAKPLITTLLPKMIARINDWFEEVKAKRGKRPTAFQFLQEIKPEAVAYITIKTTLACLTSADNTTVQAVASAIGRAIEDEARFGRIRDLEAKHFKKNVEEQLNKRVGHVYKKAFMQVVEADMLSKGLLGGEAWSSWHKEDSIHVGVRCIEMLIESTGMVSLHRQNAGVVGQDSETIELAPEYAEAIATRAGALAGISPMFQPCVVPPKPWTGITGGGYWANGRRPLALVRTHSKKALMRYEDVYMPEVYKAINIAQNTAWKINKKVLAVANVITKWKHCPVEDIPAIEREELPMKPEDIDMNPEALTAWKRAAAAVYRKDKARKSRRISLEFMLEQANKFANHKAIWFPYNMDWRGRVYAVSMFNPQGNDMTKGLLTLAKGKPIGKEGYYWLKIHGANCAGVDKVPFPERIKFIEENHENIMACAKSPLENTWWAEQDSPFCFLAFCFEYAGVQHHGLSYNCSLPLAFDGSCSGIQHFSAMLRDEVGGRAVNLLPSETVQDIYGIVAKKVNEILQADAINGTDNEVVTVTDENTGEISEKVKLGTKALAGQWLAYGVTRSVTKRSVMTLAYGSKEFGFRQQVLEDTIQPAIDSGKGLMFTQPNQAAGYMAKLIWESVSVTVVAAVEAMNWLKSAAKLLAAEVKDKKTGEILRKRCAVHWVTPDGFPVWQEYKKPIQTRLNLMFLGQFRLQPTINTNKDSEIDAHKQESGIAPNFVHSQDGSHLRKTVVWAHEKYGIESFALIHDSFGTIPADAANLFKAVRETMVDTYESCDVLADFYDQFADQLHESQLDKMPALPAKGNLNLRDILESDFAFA

Row | SMILES | Efficiency (Vmax/KM) ([2]; template (N) = C, temp35N-2) | Km ([2]; template (N) = C, temp35N-2) [µM] | Vmax ([2]; template (N) = C, temp35N-2) [% min^−1] | Efficiency (Vmax/KM) ([2]; template (N) = Ds, temp35N-1) | Km ([2]; template (N) = Ds, temp35N-1) [µM] | Vmax ([2]; template (N) = Ds, temp35N-1) [% min^−1] | Efficiency (Vmax/KM) ([2]; template (N) = Pa, temp35N-2) | Km ([2]; template (N) = Pa, temp35N-2) [µM] | Vmax ([2]; template (N) = Pa, temp35N-2) [% min^−1] | Efficiency (Vmax/KM) ([2]; template (N) = Pa′, temp35N-2) | Km ([2]; template (N) = Pa′, temp35N-2) [µM] | Vmax ([2]; template (N) = Pa′, temp35N-2) [% min^−1] | Efficiency (Vmax/KM) ([2]; template (N) = T, temp35N-2) | Km ([2]; template (N) = T, temp35N-2) [µM] | Vmax ([2]; template (N) = T, temp35N-2) [% min^−1] | also measured
1 | CN(C)c1ccc2c(c1)Oc1cc(N(C)C)ccc1C21OC(=O)c2cc(C(=O)NCCCCCC(=O)NCC#Cc3cc(C=O)n([C@@H]4O[C@H](COP(=O)(O)OP(=O)(O)OP(=O)(O)O)[C@@H](O)[C@H]4O)c3)ccc21 [TAMRA-hx-PaTP, 1-(β-D-Ribofuranosyl)-4-[3-(6-(tetramethylrhodamine-5-carboxamido)hexanamido)-1-propynyl]pyrrole-2-carbaldehyde 5′-triphosphate] |  |  |  |  |  |  |  |  |  |  |  |  |  |  |  | transcription efficiency compared to control with natural substrates alone (T7 RNA polymerase [1]): 10%
2 | NP(=O)(O)OP(=O)(O)OP(=O)(O)OC[C@H]1O[C@@H](n2cnc3c(-c4cccs4)ccnc32)C[C@@H]1O [dDsTPN, 7-(2-Thienyl)-3-(2-deoxy-β-D-ribofuranosyl)-3H-imidazo[4,5-b]pyridine 5′-γ-amidotriphosphate] | 1.5 × 10^3 % min^−1M^−1 | 440 | 0.64 | 9.9 × 10^3 % min^−1M^−1 | 79 | 0.78 | 6.7 × 10^4 % min^−1M^−1 | 180 | 12 | 5.7 × 10^4 % min^−1M^−1 | 230 | 13 | 3.5 × 10^3 % min^−1M^−1 | 480 | 1.7 | incorporation efficiency opposite template Pa relative to that of dATPN opposite template Pa ([2]; KF exo−, template Pa): 37 fold; Efficiency (Vmax/KM) ([2]; template (N) = A, temp35N-2): 1.9 × 10^3 % min^−1M^−1; Km ([2]; template (N) = A, temp35N-2): 270 µM; Vmax ([2]; template (N) = A, temp35N-2): 0.52 % min^−1; Efficiency (Vmax/KM) ([2]; template (N) = G, temp35N-2): 1.9 × 10^3 % min^−1M^−1; Km ([2]; template (N) = G, temp35N-2): 300 µM; Vmax ([2]; template (N) = G, temp35N-2): 0.58 % min^−1; primer extension with KF exo+ on Ds-containing template [3]: proceeded without being inhibited; primer extension after incorporation of the substrate [4]: proceeded efficiently
3 | NCCCCCC(=O)NCC#Cc1cc([N+](=O)[O-])n([C@H]2C[C@H](O)[C@@H](COP(=O)(O)OP(=O)(O)OP(=O)(O)O)O2)c1 [NH2-hx-dPnTP] |  |  |  |  |  |  |  |  |  |  |  |  |  |  |  | incorporation into DNA through primer extension [5]: incorporated into DNA opposite Ds in the template DNA
4 | O=P(O)(O)OP(=O)(O)OP(=O)(O)OC[C@H]1O[C@@H](n2cnc3c(-c4cccs4)ccnc32)C[C@@H]1O [dDsTP, 7-(2-Thienyl)-3-(2-deoxy-β-ribofuranosyl)-3H-imidazo[4,5-b]pyridine 5′-triphosphate] | 2.8 × 10^4 % min^−1M^−1 | 47 | 1.3 | 2.0 × 10^5 % min^−1M^−1 | 8 | 1.6 | 1.1 × 10^4 % min^−1M^−1 | 26 | 28 | 8.8 × 10^5 % min^−1M^−1 | 24 | 21 | 8.7 × 10^4 % min^−1M^−1 | 45 | 3.9 | Efficiency (Vmax/KM) ([2]; template (N) = A, temp35N-2): 3.6 × 10^4 % min^−1M^−1; Km ([2]; template (N) = A, temp35N-2): 33 µM; Vmax ([2]; template (N) = A, temp35N-2): 1.2 % min^−1; Efficiency (Vmax/KM) ([2]; template (N) = G, temp35N-2): 4.1 × 10^4 % min^−1M^−1; Km ([2]; template (N) = G, temp35N-2): 37 µM; Vmax ([2]; template (N) = G, temp35N-2): 1.5 % min^−1; primer extension with KF exo+ on Ds-containing template [3]: inhibited
5 | O=Cc1cc(C#CCNC(=O)CCCC[C@@H]2SC[C@@H]3NC(=O)N[C@@H]32)cn1[C@@H]1O[C@H](COP(=O)(O)OP(=O)(O)OP(=O)(O)O)[C@@H](O)[C@H]1O [Bio-PaTP, 1-(β-D-ribofuranosyl)-4-[(3-biotinamido-1-propynyl)]pyrrole-2-carbaldehyde 5′-triphosphate] |  |  |  |  |  |  |  |  |  |  |  |  |  |  |  | transcripts biotinylated (incorporation rate) (T7 RNA polymerase [6]; 2 mM Bio-PaTP): 90%; transcripts biotinylated (incorporation rate) (T7 RNA polymerase [6]; 4 mM Bio-PaTP): 96%; misincorporation opposite natural bases, yield of biotinylated transcripts (T7 RNA polymerase [6]; 2 mM Bio-PaTP): 9%; misincorporation per base position in the 152-mer transcripts (T7 RNA polymerase [6]; 2 mM Bio-PaTP): 0.06%; misincorporation opposite natural bases, yield of biotinylated transcripts (T7 RNA polymerase [6]; 4 mM Bio-PaTP): 16%; misincorporation per base position in the 152-mer transcripts (T7 RNA polymerase [6]; 4 mM Bio-PaTP): 0.12%; reduction of incorporation rate with template obtained by PCR amplification (T7 RNA polymerase [6]; template from PCR (20 cycles), FIG. 44d, Lanes 9 and 11): 3-4%
6 | Nc1ncnc2c1ncn2[C@H]1C[C@H](O)[C@@H](COP(=O)(O)OP(=O)(O)OP(N)(=O)O)O1 [dATPN, 6-Amino-9-(2-deoxy-β-D-ribofuranosyl)purine 5′-γ-amidotriphosphate] | 3.4 × 10^2 % min^−1M^−1 | 590 | 0.20 | 3.2 × 10^2 % min^−1M^−1 | 150 | 0.048 | 1.8 × 10^3 % min^−1M^−1 | 1200 | 2.2 | 3.0 × 10^3 % min^−1M^−1 | 800 | 2.4 | 2.5 × 10^5 % min^−1M^−1 | 13 | 3.2 | extension reaction after misincorporation opposite template Pa, compared to dATP ([4]; Lanes 4 and 5): significantly reduced efficiency; primer extension after incorporation of the substrate [4]: proceeded efficiently
7 | O=Cc1cc(C#CCNC(=O)CCCCCNC(=O)c2ccc3c(c2)C(=O)OC32c3ccc(O)cc3Oc3cc(O)ccc32)cn1[C@@H]1O[C@H](COP(=O)(O)OP(=O)(O)OP(=O)(O)O)[C@@H](O)[C@H]1O [FAM-hx-PaTP, 1-(β-D-Ribofuranosyl)-4-[3-(6-(fluorescein-5-carboxamido)hexanamido)-1-propynyl]pyrrole-2-carbaldehyde 5′-triphosphate] |  |  |  |  |  |  |  |  |  |  |  |  |  |  |  | transcription efficiency compared to control with natural substrates alone (T7 RNA polymerase [1]): 14%
8 | O=C(CCCCCNC(=O)c1ccc2c(c1)C(=O)OC21c2ccc(O)cc2Oc2cc(O)ccc21)NCC#Cc1cc([N+](=O)[O-])n([C@H]2C[C@H](O)[C@@H](COP(=O)(O)OP(=O)(O)OP(=O)(O)O)O2)c1 [FAM-hx-dPnTP, 1-(2-Deoxy-β-D-ribofuranosyl)-4-[3-[6-(fluorescein-5-carboxamido)hexanamido]-1-propynyl]-2-nitropyrrole 5′-triphosphate] |  |  |  |  |  |  |  |  |  |  |  |  |  |  |  | incorporation into DNA through primer extension [5]: incorporated into DNA opposite Ds in the template DNA
